Measured values as given in patent publication US12331022B2, “Spiropiperidine allosteric modulators of nicotinic acetylcholine receptors” (Merck Sharp & Dohme LLC, priority 2019, dated 2025).
Where two headings read alike, the source gives them in different places.

Target: T1, human α7 nAChR (Homo sapiens, UniProt P36544)
T1 construct: host or cells: HEK
Test: Automated patch-clamp electrophysiology functional assay (Assay A)
Type: cell-based
Conditions: HEK cell line stably expressing human RIC-3 and human α7, IonFlux HT whole-cell population patch, with or without 40 μM acetylcholine
Experimental: The α7 nAChR positive allosteric modulator (PAM) activity of the present compounds may be tested using assays known in the art. The α7 nAChR PAMs described herein have activities in an automated patch-clamp electrophysiology functional assay as described in the examples. The assay was performed using the IonFlux HT in a whole-cell, population patch configuration. See Golden et al. Assay Drug Dev. Technol. (2011) 9:608-619. The compounds were assessed for their ability to modulate the function of the human α7 nAChR stably expressed in a HEK cell line both in the presence, and in the absence of the natural α7 agonist acetylcholine. By performing a series of such measurements at different concentrations, the effective concentration of the α7 nAChR PAMs (EC50) was determined. See Spencer et al. Assay Drug Dev. Technol. (2012) 10:313-324.
Direct activation of α7 (agonism), and potentiation of acetylcholine-evoked α7 currents was determined as follows:
Automated patch-clamp electrophysiology was performed using the IonFlux HT (Fluxion Biosciences Inc., San Francisco, CA) in the whole-cell, population patch configuration. Test compounds were assessed for their ability to modulate the function of the α7 nicotinic acetylcholine receptor both in the presence, and in the absence of the natural α7 agonist acetylcholine. A HEK cell line stably expressing both human RIC-3 and human α7 (PrecisION hnAChR α7/RIC-3, Eurofins Pharma, St. Charles, MO) was cultured in 175 cm^2 triple-layer tissue culture flasks to no more than 90% confluency in DMEM/F-12 growth media supplemented with 10% heat-inactivated fetal bovine serum, 1% non-essential amino acids, 0.625 μg/mL Puromycin, and 400 μg/mL Geneticin. Immediately prior to assay, cells were detached by first aspirating growth media, rinsing with Dulbecco's phosphate buffered saline, and then adding 10 mL of Accutase (Innovative Cell Technologies, San Diego, CA) to the flask and then incubating at 37° C. for 5 minutes. Detached cells were then recovered by the addition of 40 mL of CHO-serum-free media supplemented with 25 mM HEPES, and rocked gently in a 50 mL conical tube for 20 minutes prior to patch-clamp assay. After recovery, cells were pelleted by centrifugation at 1,000 RPM for 1 minute in a compact bench top centrifuge; recovery media was aspirated and cells were resuspended in external recording solution (150 mM NaCl, 5 mM KCl, 2 mM CaCl2, 1 mM MgCl2, 10 mM HEPES, 12 mM dextrose) to a density of 5.0×10^6 cells/mL. The cell suspension was added to the cell inlet wells on an IonFlux HT population patch plate which had previously been rinsed and primed with deionized H2O. Test compounds were serially diluted in DMSO and then resuspended to the final test concentration in external recording solution, with, or without 40 μM acetylcholine added to the external recording solution; test compounds were then transferred to the IonFlux HT population patch plate. Internal recording solution (110 mM TrisPO4, 28 mM TrisBase, 0.1 mM CaCl2, 2 mM MgCl2, 11 mM EGTA, 4 mM MgATP) was added to the internal recording solution inlet wells on the IonFlux HT patch plate previously loaded with cells and test compounds, and the plate loaded into the IonFlux HT instrument. A protocol was executed on the IonFlux HT to trap the cells, break into the cells, and establish the whole-cell recording configuration; cells were voltage-clamped at a holding potential of −60 mV for the duration of the experiment, all experiments were conducted at room temperature, and the IonFlux HT injection pressure was 8 psi for solution applications. Upon establishing the whole-cell configuration, external recording solution was perfused into the recording chambers for 120 seconds and then 40 μM acetylcholine was applied for 1 second and immediately washed off with external recording solution for 60 seconds. […]

T1 sequence (P36544 23-502): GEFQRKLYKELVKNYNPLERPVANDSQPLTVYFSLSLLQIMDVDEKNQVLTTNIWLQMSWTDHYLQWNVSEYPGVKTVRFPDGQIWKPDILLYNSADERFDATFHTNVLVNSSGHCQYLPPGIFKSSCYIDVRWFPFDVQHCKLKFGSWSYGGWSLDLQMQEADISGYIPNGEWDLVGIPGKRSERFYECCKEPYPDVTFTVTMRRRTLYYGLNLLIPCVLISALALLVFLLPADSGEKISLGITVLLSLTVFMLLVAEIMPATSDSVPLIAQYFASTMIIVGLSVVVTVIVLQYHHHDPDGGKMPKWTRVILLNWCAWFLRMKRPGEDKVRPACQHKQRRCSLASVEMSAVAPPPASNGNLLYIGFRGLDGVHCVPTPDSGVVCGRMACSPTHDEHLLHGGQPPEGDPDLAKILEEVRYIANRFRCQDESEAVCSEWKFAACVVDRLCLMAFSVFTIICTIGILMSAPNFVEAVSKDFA

SMILES | EC50 (read-out: α7 nAChR Potency) | EC50 (read-out: α7 nAChR EC50)
NS(=O)(=O)N1CCC2(CC1)CC2COc1ccnc(C(F)(F)F)c1 (centres unmarked) [Example 5, 1-({[2-(Trifluoromethyl)pyridin-4-yl]oxy}methyl)-6-azaspiro[2.5]octane-6-sulfonamide] | 500 to 5000 nM | 3200 nM
NS(=O)(=O)N1CCC2(CC1)C[C@H]2COc1noc(-c2ccccc2)n1 [Example 4, (1R)-1-{[(5-Phenyl-1,2,4-oxadiazol-3-yl)oxy]methyl}-6-azaspiro[2.5]octane-6-sulfonamide] | 500 to 5000 nM | 580 nM
NS(=O)(=O)N1CCC2(CC1)C(/C=C/c1ccc(F)cc1C(F)(F)F)C2(F)F (centres unmarked) [Example 19, 1,1-Difluoro-2-{(E)-2-[4-fluoro-2-(trifluoromethyl)phenyl]ethenyl}-6-azaspiro[2.5]octane-6-sulfonamide] | 500 to 5000 nM | 1900 nM
NS(=O)(=O)N1CCC2(CC1)C[C@H]2COc1cccc(N2CCOCC2)n1 [Example 16, (1R)-1-({[6-(Morpholin-4-yl)pyridin-2-yl]oxy}methyl)-6-azaspiro[2.5]octane-6-sulfonamide] | 100 to 500 nM | 100 nM
COc1ccc(Cl)cc1OCC1C(F)(F)C12CCN(S(N)(=O)=O)CC2 (single isomer, unassigned) [Example A3, 2-[(5-chloro-2-methoxyphenoxy)methyl]-1,1-difluoro-6-azaspiro[2.5]octane-6-sulfonamide] | 500 to 5000 nM | 1300 nM
COc1cc(OC[C@H]2CC23CCN(S(N)(=O)=O)CC3)ccc1F [Example A5, (1S)-1-[(4-fluoro-3-methoxyphenoxy)methyl]-6-azaspiro[2.5]octane-6-sulfonamide] | 5000 to 50000 nM | 6200 nM
NS(=O)(=O)N1CCC2(CC1)CC2COc1ccccc1OC(F)F (single isomer, unassigned) [Example A9, 1-{[2-(difluoromethoxy)phenoxy]methyl}-6-azaspiro[2.5]octane-6-sulfonamide] | 500 to 5000 nM | 650 nM
NS(=O)(=O)N1CCC2(CC1)CC2COc1ccnc(OC(F)F)c1 (centres unmarked) [Example 1, 1-({[2-(Difluoromethoxy)pyridin-4-yl]oxy}methyl)-6-azaspiro[2.5]octane-6-sulfonamide] | 500 to 5000 nM | 730 nM
NS(=O)(=O)N1CCC2(CC1)C[C@H]2COCc1cccc(OCC(F)(F)F)n1 [Example 9, (1R)-1-({[6-(2,2,2-Trifluoroethoxy)pyridin-2-yl]methoxy}methyl)-6-azaspiro[2.5]octane-6-sulfonamide] | 500 to 5000 nM | 1200 nM
COc1ccc(OC[C@@H]2CC23CCN(S(N)(=O)=O)CC3)c(OC)n1 [Example A1, (1R)-1-{[(2,6-dimethoxypyridin-3-yl)oxy]methyl}-6-azaspiro[2.5]octane-6-sulfonamide] | 5000 to 50000 nM | 6200 nM
Cn1nc(C(F)(F)F)cc1OCC1C(F)(F)C12CCN(S(N)(=O)=O)CC2 (single isomer, unassigned) [Example A11, 1,1-difluoro-2-({[1-methyl-3-(trifluoromethyl)-1H-pyrazol-5-yl]oxy}methyl)-6-azaspiro[2.5]octane-6-sulfonamide] | ≤ 100 nM | 90 nM
COc1ccc(Cl)cc1S(=O)(=O)C[C@@H]1CC12CCN(S(N)(=O)=O)CC2 [Example 12, (1R)-1-{[(5-Chloro-2-methoxyphenyl)sulfonyl]methyl}-6-azaspiro[2.5]octane-6-sulfonamide] | 500 to 5000 nM | 1600 nM

Other lines, results leading:

EC50 (read-out: α7 nAChR Potency) | EC50 (read-out: α7 nAChR EC50) | SMILES
≤ 100 nM |  | COc1ccc(F)c(OCC2C(F)(F)C23CCN(S(N)(=O)=O)CC3)c1 (single isomer, unassigned) [Example A31, 1,1-difluoro-2-[(2-fluoro-5-methoxyphenoxy)methyl]-6-azaspiro[2.5]octane-6-sulfonamide]
100 to 500 nM | 280 nM | NS(=O)(=O)N1CCC2(CC1)C[C@H]2COc1cccc(C2CC2)n1 [Example A49]
100 to 500 nM | 180 nM | NS(=O)(=O)N1CCC2(CC1)C[C@H]2COc1cccc(OC(F)(F)F)c1 [Example A24, (1R)-1-{[3-(trifluoromethoxy)phenoxy]methyl}-6-azaspiro[2.5]octane-6-sulfonamide]
100 to 500 nM | 470 nM | NS(=O)(=O)N1CCC2(CC1)CC2COc1cc(F)ccc1C(F)(F)F (single isomer, unassigned) [Example A15, 1-{[5-fluoro-2-(trifluoromethyl)phenoxy]methyl}-6-azaspiro[2.5]octane-6-sulfonamide]
500 to 5000 nM |  | COc1cccc(OCC2CC23CCN(S(N)(=O)=O)CC3)n1 (racemic) [Example A27, 1-{[(6-methoxypyridin-2-yl)oxy]methyl}-6-azaspiro[2.5]octane-6-sulfonamide]
100 to 500 nM | 190 nM | COc1cc(OC[C@H]2CC23CCN(S(N)(=O)=O)CC3)nc(OCC(F)(F)F)c1 [Example A16, (1S)-1-({[4-methoxy-6-(2,2,2-trifluoroethoxy)pyridin-2-yl]oxy}methyl)-6-azaspiro[2.5]octane-6-sulfonamide]
500 to 5000 nM | 570 nM | COc1cccc(OC[C@@H]2CC23CCN(S(N)(=O)=O)CC3)n1 [Example A51, (1R)-1-{[(6-methoxypyridin-2-yl)oxy]methyl}-6-azaspiro[2.5]octane-6-sulfonamide]
500 to 5000 nM | 1100 nM | NS(=O)(=O)N1CCC2(CC1)C(COc1noc(-c3ccccc3)n1)C2(F)F (single isomer, unassigned) [Example A21, 1,1-difluoro-2-{[(5-phenyl-1,2,4-oxadiazol-3-yl)oxy]methyl}-6-azaspiro[2.5]octane-6-sulfonamide]
500 to 5000 nM | 4200 nM | Cn1nc(C(F)(F)F)cc1OCC1C(F)(F)C12CCN(S(N)(=O)=O)CC2 (single isomer, unassigned) [Example A12, 1,1-difluoro-2-({[1-methyl-3-(trifluoromethyl)-1H-pyrazol-5-yl]oxy}methyl)-6-azaspiro[2.5]octane-6-sulfonamide]
≤ 100 nM | 22 nM | COc1ccc(Cl)cc1NC[C@@H]1C(F)(F)C12CCN(S(N)(=O)=O)CC2 [Example A59, (2R)-2-{[(5-chloro-2-methoxyphenyl)amino]methyl}-1,1-difluoro-6-azaspiro[2.5]octane-6-sulfonamide]
500 to 5000 nM | 1800 nM | Cc1cc(C)n(-c2cccc(OC[C@H]3CC34CCN(S(N)(=O)=O)CC4)n2)n1 [Example A20, (1S)-1-({[6-(3,5-dimethyl-1H-pyrazol-1-yl)pyridin-2-yl]oxy}methyl)-6-azaspiro[2.5]octane-6-sulfonamide]
500 to 5000 nM | 1400 nM | COc1ccccc1NC(=O)[C@@H]1CC12CCN(S(N)(=O)=O)CC2 [Example B1, (1R)—N-(2-methoxyphenyl)-6-sulfamoyl-6-azaspiro[2.5]octane-1-carboxamide]
100 to 500 nM | 480 nM | CC(C)(O)c1cccc(OC[C@@H]2CC23CCN(S(N)(=O)=O)CC3)n1 [Example A52, (1R)-1-({[6-(2-hydroxypropan-2-yl)pyridin-2-yl]oxy}methyl)-6-azaspiro[2.5]octane-6-sulfonamide]
≤ 100 nM | 69 nM | NS(=O)(=O)N1CCC2(CC1)C[C@H]2COc1cccc(-c2ccccc2)n1 [Example A57, (1R)-1-{[(6-phenylpyridin-2-yl)oxy]methyl}-6-azaspiro[2.5]octane-6-sulfonamide]
